# Experiments:
# Assay type in all cases: in vivo
# corn (Zea mays) [1] = experiment: Test G Post-Emergence Protocol; settings: Zea mays, post-emergence, 312 h, read-out: Corn damage rating
# In short: (§1)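 Foliar application was made 8 days after sowing, using an aqueous spray of the active in acetone/water (50:50) with 0.5% Tween 20, at doses of 15.625, 62.5 or 250 g/ha. Injury was assessed 13 days later, where 100 meant the plant was fully damaged.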
# [2] = tested on: velvetleaf (Abutilon theophrasti); experiment: Test G Post-Emergence Protocol; settings: Abutilon theophrasti, post-emergence, 312 h, read-out: Velvetleaf damage rating
# In short: as §1
# [3] = tested on: ivy-leaved morning glory (Ipomoea hederacea); experiment: Test G Post-Emergence Protocol; settings: Ipomoea, post-emergence, 312 h, read-out: Morningglory, Ivy-leaved damage rating
# In short: as §1
# [4] = tested on: redroot pigweed (Amaranthus retroflexus); experiment: Test G Post-Emergence Protocol; settings: Amaranthus retroflexus, post-emergence, 312 h, read-out: Pigweed, Redroot damage rating
# In short: as §1
# [5] = tested on: giant foxtail (Setaria faberi); experiment: Test G Post-Emergence Protocol; settings: Setaria faberi, post-emergence, 312 h, read-out: Foxtail, Giant damage rating
# In short: as §1
# [6] = tested on: barnyardgrass (Echinochloa crus-galli); experiment: Test G Post-Emergence Protocol; settings: Echinochloa crus-galli, post-emergence, 312 h, read-out: Barnyardgrass damage rating
# In short: as §1
# corn (Zea mays) [7] = experiment: Test G Pre-Emergence Protocol; settings: Zea mays, pre-emergence, 312 h, evaluated after 13 days
# In short: (§2)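 Seeds were sown in standard soil and kept one day in a glasshouse (24/16° C day/night, 14 h light, 65% humidity), then sprayed with compound in acetone/water (50:50) containing 0.5% Tween 20 at 15.625, 62.5 or 250 g/ha. Damage was scored after 13 days (0 = none, 100 = total).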
# [8] = tested on: velvetleaf (Abutilon theophrasti); experiment: Test G Pre-Emergence Protocol; settings: Abutilon theophrasti, pre-emergence, 312 h, evaluated after 13 days
# In short: as §2
# [9] = tested on: ivy-leaved morning glory (Ipomoea hederacea); experiment: Test G Pre-Emergence Protocol; settings: Ipomoea, pre-emergence, 312 h, evaluated after 13 days
# In short: as §2
# [10] = tested on: redroot pigweed (Amaranthus retroflexus); experiment: Test G Pre-Emergence Protocol; settings: Amaranthus retroflexus, pre-emergence, 312 h, evaluated after 13 days
# In short: as §2
# [11] = tested on: giant foxtail (Setaria faberi); experiment: Test G Pre-Emergence Protocol; settings: Setaria faberi, pre-emergence, 312 h, evaluated after 13 days
# In short: as §2
# [12] = tested on: barnyardgrass (Echinochloa crus-galli); experiment: Test G Pre-Emergence Protocol; settings: Echinochloa crus-galli, pre-emergence, 312 h, evaluated after 13 days
# In short: as §2
# [13] = 15.625 g ai/ha, evaluated after 13 days (100=total damage to plant; 0=no damage to plant)
# [14] = 62.5 g ai/ha, evaluated after 13 days, 100=total damage to plant, 0=no damage to plant
# [15] = 250 g ai/ha, evaluated after 13 days, 100=total damage to plant, 0=no damage to plant
smiles,measurement,setting,value
CN1C[C@@H](c2ccc(C(F)(F)F)cc2)[C@H](C(=O)Nc2n[nH]cc2Cl)C1=O (racemic) [Compound 1658],plant injury at 15.625 g/ha,corn (Zea mays) [1]; [13],0%
same,plant injury at 62.5 g/ha,corn (Zea mays) [1]; [14],0%
same,plant injury at 250 g/ha,corn (Zea mays) [1]; [15],10%
same,pest or weed control at 15.625 g/ha,[2]; [13],0%
same,pest or weed control at 62.5 g/ha,[2]; [14],0%
same,pest or weed control at 250 g/ha,[2]; [15],10%
same,pest or weed control at 15.625 g/ha,[3]; [13],0%
same,pest or weed control at 62.5 g/ha,[3]; [14],0%
same,pest or weed control at 250 g/ha,[3]; [15],20%
same,pest or weed control at 15.625 g/ha,[4]; [13],0%
same,pest or weed control at 62.5 g/ha,[4]; [14],10%
same,pest or weed control at 250 g/ha,[4]; [15],40%
same,pest or weed control at 15.625 g/ha,[5]; [13],0%
same,pest or weed control at 62.5 g/ha,[5]; [14],0%
same,pest or weed control at 250 g/ha,[5]; [15],20%
same,pest or weed control at 15.625 g/ha,[6]; [13],0%
same,pest or weed control at 62.5 g/ha,[6]; [14],0%
same,pest or weed control at 250 g/ha,[6]; [15],20%
same,plant injury at 15.625 g/ha,"corn (Zea mays) [7]; 15.625 g ai/ha, read-out: Corn damage rating (100=total damage to plant; 0=no damage to plant)",0%
same,plant injury at 62.5 g/ha,"corn (Zea mays) [7]; 62.5 g ai/ha, 100=total damage to plant, 0=no damage to plant, read-out: Corn damage rating",0%
same,plant injury at 250 g/ha,"corn (Zea mays) [7]; 250 g ai/ha, read-out: Corn damage rating (100=total damage to plant; 0=no damage to plant)",0%
same,pest or weed control at 15.625 g/ha,"[8]; 15.625 g ai/ha, read-out: Velvetleaf damage rating (100=total damage to plant; 0=no damage to plant)",0%
same,pest or weed control at 62.5 g/ha,"[8]; 62.5 g ai/ha, 100=total damage to plant, 0=no damage to plant, read-out: Velvetleaf damage rating",0%
same,pest or weed control at 250 g/ha,"[8]; 250 g ai/ha, read-out: Velvetleaf damage rating (100=total damage to plant; 0=no damage to plant)",0%
same,pest or weed control at 15.625 g/ha,"[9]; 15.625 g ai/ha, read-out: Morningglory, Ivy-leaved damage rating (100=total damage to plant; 0=no damage to plant)",0%
same,pest or weed control at 62.5 g/ha,"[9]; 62.5 g ai/ha, 100=total damage to plant, 0=no damage to plant, read-out: Morningglory, Ivy-leaved damage rating",0%
same,pest or weed control at 250 g/ha,"[9]; 250 g ai/ha, read-out: Morningglory, Ivy-leaved damage rating (100=total damage to plant; 0=no damage to plant)",0%
same,pest or weed control at 15.625 g/ha,"[10]; 15.625 g ai/ha, read-out: Pigweed, Redroot damage rating (100=total damage to plant; 0=no damage to plant)",0%
same,pest or weed control at 62.5 g/ha,"[10]; 62.5 g ai/ha, 100=total damage to plant, 0=no damage to plant, read-out: Pigweed, Redroot damage rating",0%
same,pest or weed control at 250 g/ha,"[10]; 250 g ai/ha, read-out: Pigweed, Redroot damage rating (100=total damage to plant; 0=no damage to plant)",0%
same,pest or weed control at 15.625 g/ha,"[11]; 15.625 g ai/ha, read-out: Foxtail, Giant damage rating (100=total damage to plant; 0=no damage to plant)",0%
same,pest or weed control at 62.5 g/ha,"[11]; 62.5 g ai/ha, 100=total damage to plant, 0=no damage to plant, read-out: Foxtail, Giant damage rating",0%
same,pest or weed control at 250 g/ha,"[11]; 250 g ai/ha, read-out: Foxtail, Giant damage rating (100=total damage to plant; 0=no damage to plant)",0%
same,pest or weed control at 15.625 g/ha,"[12]; 15.625 g ai/ha, read-out: Barnyardgrass damage rating (100=total damage to plant; 0=no damage to plant)",0%
same,pest or weed control at 62.5 g/ha,"[12]; 62.5 g ai/ha, 100=total damage to plant, 0=no damage to plant, read-out: Barnyardgrass damage rating",0%
same,pest or weed control at 250 g/ha,"[12]; 250 g ai/ha, read-out: Barnyardgrass damage rating (100=total damage to plant; 0=no damage to plant)",0%
